Assay results: PMC12616683, “In Vivo Atlas of Neuroprotective Cyclic Dipeptides Derived from Food Gelatin Using Peptidomics and Feature-Based Molecular Networking” (Journal of Agricultural and Food Chemistry, 2025)
Square brackets hold non-standard residues; d marks the D form. Peptide text beside a SMILES is read from it. pGlu = O=C1CC[CH](C(=O)O)N1

Assay: FBMN analysis of short peptides in small intestine contents and serum after oral DHG
Settings: for Peptide signal (feature intensity) in the small intestine, 30 min / Peptide signal (feature intensity) in the small intestine, 60 min / Peptide signal (feature intensity) in the small intestine, 120 min / Peptide signal (feature intensity) in the small intestine, 240 min: small intestine contents, C57 mice, FBMN feature intensity, peptides smaller than 690 Da; for Peptide signal (feature intensity) in the small intestine, 30 min: 30 min after oral DHG; for Peptide signal (feature intensity) in the small intestine, 60 min: 60 min after oral DHG; for Peptide signal (feature intensity) in the small intestine, 120 min: 120 min after oral DHG; for Peptide signal (feature intensity) in the small intestine, 240 min: 240 min after oral DHG; for time detected in serum (FBMN): time points 0.5-4 h after oral DHG

CC(C)C[C@H](NC(=O)CNC(=O)[C@@H](N)CC(C)C)C(=O)O [Leu-Gly-Leu] (H-Leu-Gly-Leu-OH)
Peptide signal (feature intensity) in the small intestine, 30 min: 2.40E+06
Peptide signal (feature intensity) in the small intestine, 60 min: 6.61E+05
Peptide signal (feature intensity) in the small intestine, 120 min: 0.00E+00
Peptide signal (feature intensity) in the small intestine, 240 min: 4.40E+06

CC(C)CC(N)C(=O)NC(Cc1ccccc1)C(=O)O (stereo not drawn) [Leu-Phe] (H-Leu-Phe-OH; configuration not given here)
Peptide signal (feature intensity) in the small intestine, 30 min: 6.52E+05
Peptide signal (feature intensity) in the small intestine, 60 min: 9.44E+05
Peptide signal (feature intensity) in the small intestine, 120 min: 8.51E+05
Peptide signal (feature intensity) in the small intestine, 240 min: 0.00E+00

CC(C)C[C@H](N)C(=O)N[C@H](C(=O)N[C@@H](CCCCN)C(=O)O)C(C)C [Leu-Val-Lys] (H-Leu-Val-Lys-OH)
Peptide signal (feature intensity) in the small intestine, 30 min: 0.00E+00
Peptide signal (feature intensity) in the small intestine, 60 min: 3.40E+05
Peptide signal (feature intensity) in the small intestine, 120 min: 8.97E+05
Peptide signal (feature intensity) in the small intestine, 240 min: 2.22E+06

CC(C)CC(N)C(=O)NC(C(=O)O)C(C)C (stereo not drawn) [Leu-Val] (H-Leu-Val-OH; configuration not given here)
Peptide signal (feature intensity) in the small intestine, 30 min: 4.22E+06
Peptide signal (feature intensity) in the small intestine, 60 min: 7.59E+06
Peptide signal (feature intensity) in the small intestine, 120 min: 0.00E+00
Peptide signal (feature intensity) in the small intestine, 240 min: 0.00E+00

CC(C)C[C@H](N)C(=O)N[C@@H](C)C(=O)O [Leu-ala] (H-Leu-Ala-OH)
Peptide signal (feature intensity) in the small intestine, 30 min: 1.85E+06
Peptide signal (feature intensity) in the small intestine, 60 min: 1.64E+06
Peptide signal (feature intensity) in the small intestine, 120 min: 0.00E+00
Peptide signal (feature intensity) in the small intestine, 240 min: 0.00E+00

CSCCC(N)C(=O)NC(CC(C)C)C(=O)O (stereo not drawn) [Met-Leu] (H-Met-Leu-OH; configuration not given here)
Peptide signal (feature intensity) in the small intestine, 30 min: 0.00E+00
Peptide signal (feature intensity) in the small intestine, 60 min: 0.00E+00
Peptide signal (feature intensity) in the small intestine, 120 min: 4.03E+05
Peptide signal (feature intensity) in the small intestine, 240 min: 3.59E+05

CSCC[C@H](N)C(=O)N[C@@H](Cc1ccccc1)C(=O)O [Met-Phe] (H-Met-Phe-OH)
Peptide signal (feature intensity) in the small intestine, 30 min: 0.00E+00
Peptide signal (feature intensity) in the small intestine, 60 min: 0.00E+00
Peptide signal (feature intensity) in the small intestine, 120 min: 5.87E+05
Peptide signal (feature intensity) in the small intestine, 240 min: 2.12E+06

CSCCC(N)C(=O)NC(C(=O)O)C(C)C (stereo not drawn) [Met-Val] (H-Met-Val-OH; configuration not given here)
Peptide signal (feature intensity) in the small intestine, 30 min: 0.00E+00
Peptide signal (feature intensity) in the small intestine, 60 min: 0.00E+00
Peptide signal (feature intensity) in the small intestine, 120 min: 5.98E+05
Peptide signal (feature intensity) in the small intestine, 240 min: 1.03E+06

CSCC[C@H](N)C(=O)O [Methionine]
Peptide signal (feature intensity) in the small intestine, 30 min: 0.00E+00
Peptide signal (feature intensity) in the small intestine, 60 min: 0.00E+00
Peptide signal (feature intensity) in the small intestine, 120 min: 1.12E+05
Peptide signal (feature intensity) in the small intestine, 240 min: 2.58E+05

NC(=O)CC[C@H](NC(=O)[C@@H](N)Cc1ccccc1)C(=O)O [Phe-Gln]
Peptide signal (feature intensity) in the small intestine, 30 min: 0.00E+00
Peptide signal (feature intensity) in the small intestine, 60 min: 1.71E+05
Peptide signal (feature intensity) in the small intestine, 120 min: 3.17E+05
Peptide signal (feature intensity) in the small intestine, 240 min: 2.35E+05

N[C@@H](Cc1ccccc1)C(=O)N[C@@H](CCC(=O)O)C(=O)O [Phe-Glu] (H-Phe-Glu-OH)
Peptide signal (feature intensity) in the small intestine, 30 min: 1.31E+07
Peptide signal (feature intensity) in the small intestine, 60 min: 3.77E+06
Peptide signal (feature intensity) in the small intestine, 120 min: 0.00E+00
Peptide signal (feature intensity) in the small intestine, 240 min: 0.00E+00

CC[C@H](C)[C@H](NC(=O)[C@@H](N)Cc1ccccc1)C(=O)N[C@@H](CCCCN)C(=O)O [Phe-Ile-Lys] (H-Phe-Ile-Lys-OH)
Peptide signal (feature intensity) in the small intestine, 30 min: 0.00E+00
Peptide signal (feature intensity) in the small intestine, 60 min: 1.05E+05
Peptide signal (feature intensity) in the small intestine, 120 min: 8.61E+05
Peptide signal (feature intensity) in the small intestine, 240 min: 7.83E+05

CC(C)C[C@H](NC(=O)[C@@H](N)Cc1ccccc1)C(=O)N[C@@H](CCCCN)C(=O)O [Phe-Leu-Lys] (H-Phe-Leu-Lys-OH)
Peptide signal (feature intensity) in the small intestine, 30 min: 0.00E+00
Peptide signal (feature intensity) in the small intestine, 60 min: 4.25E+05
Peptide signal (feature intensity) in the small intestine, 120 min: 0.00E+00
Peptide signal (feature intensity) in the small intestine, 240 min: 8.08E+05

CC(C)CC(NC(=O)C(N)Cc1ccccc1)C(=O)O (stereo not drawn) [Phe-Leu] (H-Phe-Leu-OH; configuration not given here)
time detected in serum (FBMN): ≥ 4 h
Peptide signal (feature intensity) in the small intestine, 30 min: 2.64E+06
Peptide signal (feature intensity) in the small intestine, 60 min: 2.44E+06
Peptide signal (feature intensity) in the small intestine, 120 min: 0.00E+00
Peptide signal (feature intensity) in the small intestine, 240 min: 0.00E+00

NC(Cc1ccccc1)C(=O)N1CCCC1C(=O)O (stereo not drawn) [Phe-Pro] (H-Phe-Pro-OH; configuration not given here)
Peptide signal (feature intensity) in the small intestine, 30 min: 1.25E+06
Peptide signal (feature intensity) in the small intestine, 60 min: 7.11E+05
Peptide signal (feature intensity) in the small intestine, 120 min: 1.63E+06
Peptide signal (feature intensity) in the small intestine, 240 min: 3.02E+06

C[C@@H](O)[C@H](NC(=O)[C@@H](N)Cc1ccccc1)C(=O)O [Phe-Thr]
Peptide signal (feature intensity) in the small intestine, 30 min: 4.05E+04
Peptide signal (feature intensity) in the small intestine, 60 min: 6.53E+03
Peptide signal (feature intensity) in the small intestine, 120 min: 0.00E+00
Peptide signal (feature intensity) in the small intestine, 240 min: 0.00E+00

NC(Cc1ccccc1)C(=O)NC(Cc1ccc(O)cc1)C(=O)O (stereo not drawn) [Phe-Tyr] (H-Phe-Tyr-OH; configuration not given here)
Peptide signal (feature intensity) in the small intestine, 30 min: 4.42E+05
Peptide signal (feature intensity) in the small intestine, 60 min: 1.79E+06
Peptide signal (feature intensity) in the small intestine, 120 min: 8.30E+05
Peptide signal (feature intensity) in the small intestine, 240 min: 0.00E+00

CC(C)C(NC(=O)C(N)Cc1ccccc1)C(=O)O (stereo not drawn) [Phe-Val] (H-Phe-Val-OH; configuration not given here)
Peptide signal (feature intensity) in the small intestine, 30 min: 1.12E+06
Peptide signal (feature intensity) in the small intestine, 60 min: 1.09E+06
Peptide signal (feature intensity) in the small intestine, 120 min: 0.00E+00
Peptide signal (feature intensity) in the small intestine, 240 min: 0.00E+00

CC(C)CC(NC(=O)C1CCCN1)C(=O)O (stereo not drawn) [Pro-Leu] (H-Pro-Leu-OH; configuration not given here)
Peptide signal (feature intensity) in the small intestine, 30 min: 5.47E+07
Peptide signal (feature intensity) in the small intestine, 60 min: 1.43E+07
Peptide signal (feature intensity) in the small intestine, 120 min: 0.00E+00
Peptide signal (feature intensity) in the small intestine, 240 min: 0.00E+00

O=C(O)C(Cc1ccccc1)NC(=O)C1CCCN1 (stereo not drawn) [Pro-Phe] (H-Pro-Phe-OH; configuration not given here)
Peptide signal (feature intensity) in the small intestine, 30 min: 9.57E+05
Peptide signal (feature intensity) in the small intestine, 60 min: 9.73E+05
Peptide signal (feature intensity) in the small intestine, 120 min: 1.22E+06
Peptide signal (feature intensity) in the small intestine, 240 min: 0.00E+00

CCC(C)C(NC(=O)C1CCC(=O)N1)C(=O)O (stereo not shown) [PyroGlu-Ile] ([pGlu]-Ile-OH; configuration not given here)
time detected in serum (FBMN): only detected in the first hour
Peptide signal (feature intensity) in the small intestine, 30 min: 7.74E+05
Peptide signal (feature intensity) in the small intestine, 60 min: 1.17E+06
Peptide signal (feature intensity) in the small intestine, 120 min: 5.33E+05
Peptide signal (feature intensity) in the small intestine, 240 min: 0.00E+00

CSCCC(NC(=O)C1CCC(=O)N1)C(=O)O (stereo not shown) [PyroGlu-Met] ([pGlu]-Met-OH; configuration not given here)
Peptide signal (feature intensity) in the small intestine, 30 min: 4.70E+06
Peptide signal (feature intensity) in the small intestine, 60 min: 5.95E+06
Peptide signal (feature intensity) in the small intestine, 120 min: 0.00E+00
Peptide signal (feature intensity) in the small intestine, 240 min: 0.00E+00

O=C1CCC(C(=O)NC(Cc2ccccc2)C(=O)O)N1 (stereo not shown) [PyroGlu-Phe]
time detected in serum (FBMN): only detected in the first hour
Peptide signal (feature intensity) in the small intestine, 30 min: 0.00E+00
Peptide signal (feature intensity) in the small intestine, 60 min: 1.13E+07
Peptide signal (feature intensity) in the small intestine, 120 min: 0.00E+00
Peptide signal (feature intensity) in the small intestine, 240 min: 5.69E+06

O=C1CCC(C(=O)N2CCCC2C(=O)O)N1 (stereo not shown) [PyroGlu-Pro] ([pGlu]-Pro-OH; configuration not given here)
Peptide signal (feature intensity) in the small intestine, 30 min: 0.00E+00
Peptide signal (feature intensity) in the small intestine, 60 min: 1.75E+07
Peptide signal (feature intensity) in the small intestine, 120 min: 0.00E+00
Peptide signal (feature intensity) in the small intestine, 240 min: 1.91E+07

O=C1CCC(C(=O)NC(Cc2ccc(O)cc2)C(=O)O)N1 (stereo not shown) [PyroGlu-Tyr] ([pGlu]-Tyr-OH; configuration not given here)
Peptide signal (feature intensity) in the small intestine, 30 min: 0.00E+00
Peptide signal (feature intensity) in the small intestine, 60 min: 2.55E+07
Peptide signal (feature intensity) in the small intestine, 120 min: 0.00E+00
Peptide signal (feature intensity) in the small intestine, 240 min: 1.33E+07

CC(C)[C@H](NC(=O)[C@@H]1CCC(=O)N1)C(=O)O [PyroGlu-Val] (HELM PEPTIDE1{[Glp].V}$$$$V2.0)
Peptide signal (feature intensity) in the small intestine, 30 min: 0.00E+00
Peptide signal (feature intensity) in the small intestine, 60 min: 7.64E+06
Peptide signal (feature intensity) in the small intestine, 120 min: 0.00E+00
Peptide signal (feature intensity) in the small intestine, 240 min: 1.03E+07

CC(C)C[C@H](NC(=O)[C@@H](N)CO)C(=O)N[C@@H](CCCCN)C(=O)O [Ser-Leu-Lys] (H-Ser-Leu-Lys-OH)
Peptide signal (feature intensity) in the small intestine, 30 min: 8.94E+05
Peptide signal (feature intensity) in the small intestine, 60 min: 6.69E+05
Peptide signal (feature intensity) in the small intestine, 120 min: 1.60E+06
Peptide signal (feature intensity) in the small intestine, 240 min: 4.59E+06

CC(C)CC(NC(=O)C(N)CO)C(=O)O (stereo not drawn) [Ser-Leu] (H-Ser-Leu-OH; configuration not given here)
Peptide signal (feature intensity) in the small intestine, 30 min: 0.00E+00
Peptide signal (feature intensity) in the small intestine, 60 min: 1.15E+07
Peptide signal (feature intensity) in the small intestine, 120 min: 0.00E+00
Peptide signal (feature intensity) in the small intestine, 240 min: 1.59E+07
